Results on 4 compounds are retold here after patent publication US9273095B2, “Antibiotic peptide and preparation method therefor and application therefor” (priority 2011, dated 2016).

Format in all cases: cell-based
The test system of assay [1] is Acinetobacter calcoaceticus. In words: microbe, parasite or virus in culture. The procedure:
(§1) The experimental strains are 37 standard strains preserved in lab and clinical isolated bacteria, including drug-resistant bacteria and quality-control bacteria selecting Staphylococcus aureus ATCC29213, Enterococcus faecalis ATCC29212, Escherichia coli ATCC25922, Pseudomonas aeruginosa ATCC27853 and klebsiella pneumoniae ATCC700603.
(§2) (1) Sensitivity test is conducted with two-fold agar dilution method and Denlay multipoint inoculator. Test bacteria are cultured with nutrient broth and brain heart infusion.
(§3) (2) The drug is double diluted into different concentration with MH broth after dissolved and then placed in the plate respectively.
(§4) (3) After dissolved, MH agar culture medium are injected into the plate with drug quantitatively and mixed to make the final concentration of drug are 0.03, 0.06, 0.125, . . . , 128 μg/ml respectively.
(§5) (4) After solidification of the culture medium in the plate, test bacteria (10^4CFU/point) are inoculated by multipoint inoculator and cultured for 18 hours at constant 35° C. Then observe the results.

The next assay relates to Enterobacter aerogenes. In words: microbe, parasite or virus in culture. Here is the method:
as §1, §2, §3, §4, §5

Another assay concerns Enterobacter cloacae. In words: microbe, parasite or virus in culture. Here is the method: as §1, §2, §3, §4, §5
In the next assay the test system is Escherichia coli. In words: microbe, parasite or virus in culture. Here is the method: as §1, §2, §3, §4, §5
A further assay has as its system Feilaoti citrobacter. In words: microbe, parasite or virus in culture. Here is the method: as §1, §2, §3, §4, §5
For the next assay, the system named is Proteus vulgaris. In words: microbe, parasite or virus in culture. The procedure: as §1, §2, §3, §4, §5
A further assay deals with Pseudomonas aeruginosa. In words: microbe, parasite or virus in culture. Here is the method:
as §1, §2, §3, §4, §5

The test system of a further assay is Salmonella typhimurium. In words: microbe, parasite or virus in culture. The procedure:
as §1, §2, §3, §4, §5

For the next assay, the system named is Serratia marcescens. In words: microbe, parasite or virus in culture. Here is the method:
as §1, §2, §3, §4, §5

The subject of another assay is Shigella flexneri. In words: microbe, parasite or virus in culture. The procedure: as §1, §2, §3, §4, §5
Another assay has as its system Shigella sonnei. In words: microbe, parasite or virus in culture. Conditions: Shigella sonnei strains 51592. The procedure:
as §1, §2, §3, §4, §5

Another assay deals with Shigella. In words: microbe, parasite or virus in culture. Here is the method:
as §1, §2, §3, §4, §5

The next assay deals with Staphylococcus aureus. In words: microbe, parasite or virus in culture. Here is the method:
as §1, §2, §3, §4, §5

The subject of assay [2] is Staphylococcus epidermidis. In words: microbe, parasite or virus in culture. Here is the method:
as §1, §2, §3, §4, §5

For a further assay, the system named is Typhoid bacillus H901. In words: microbe, parasite or virus in culture. Here is the method: as §1, §2, §3, §4, §5
A further assay relates to klebsiella pneumoniae. In words: microbe, parasite or virus in culture. To be noted: Klebsiella pneumoniae. The procedure: as §1, §2, §3, §4, §5
The test system of a further assay is Enterococcus faecalis. In words: organism not typed. The procedure: as §1, §2, §3, §5
Another assay concerns Enterococcus faecium. In words: microbe, parasite or virus in culture. Here is the method: as §1, §2, §3, §5
Another assay relates to candida krusei. In words: microbe, parasite or virus in culture. An excerpt: • (1) Test strains: monilia albicans (candida albicans), candida glabrata, candida krusei, candida tropicalis, aspergillus fumigatus and flavous. (2) Quality control strains: candida krusei JLC30366 (ATCC6258). Antimicrobial peptides PL-13 (SEQ ID NO: 1) under test are supplied by Jiangsu ProteLight Pharmaceutical & Biotechnology Co., LTD. […] (1) The bacterial strains which preserved on PDA slant are respectively inoculated onto PDA plate and slant medium. Activation of bacterial strains is conducted at a humidity level of 60% and 25° C. (for aspergillus) or 37° C. (for candida). (2) 0.9% stroke-physiological saline solution comprising 0.5% Tween-80 is used to prepare bacterial suspension for experiment. Hemocytometer is utilized to adjust concentration of the bacterial suspension to 1-3×10^6 CFU/ml (0.5 McFarland units) to make stock solution in reserve at -20° C. During the sensitivity test, the RPMI-1640 liquid medium is diluted 1000 times to 1-3×10^3 CFU/ml. (3) The RPMI-1640 liquid is utilized as diluent to 10-fold dilute stock solution of peptides. […] The eleventh orifice is used as living control orifice, while the twelfth one as blank control. (4) The RPMI-1640 liquid is utilized as diluent to 10-fold dilute stock solution of FCZ and ICZ. […] Ditto for other operations.

[3] abbreviates: 08-49(MSSA) Meticillin susceptible staphylococcus aureus.
Where [4] appears, read: 08-52(MRSA) Methicillin-resistant staphylococcus aureus.
[5] abbreviates: 06-71 (VRE) Vancomycin-resistant Enterococci, read-out: MIC.
Setting [6] is: HH22* (AMEs) Aminoglycoside-modifying enzyme, read-out: MIC.
[7] abbreviates: 06-12 (VREF) Vancomycin-resistant enterococci.

≈ marks a conversion by molar mass, not a printed value. Where two headings read alike, the source gives them in different places. Non-standard residues stand in square brackets, D forms with d. Residues, ends and D or L forms follow the SMILES beside them. Bounds are passed on as bounds.

For `C[C@H]1COc2c(N3CCN(C)CC3)c(F)cc3c(=O)c(C(=O)O)cn1c23` [Levofloxacin, levofloxacin, reference compound], the MIC in [1] (Acinetobacter calcoaceticus, Acinetobacter calcoaceticus25001) is 0.1 µM (≈ 0.0361 µg/mL); with Enterobacter aerogenes (Klebsiella aerogenes, Enterobacter aerogenes 45102) it was < 0.02 µM; with Enterobacter cloacae (Enterobacter cloacae 45301), 0.1 µM (≈ 0.0361 µg/mL); against Escherichia coli (Escherichia coli, 08-5 (ESBLs) Extended Spectyumβ-lactamase), 76.9 µM (≈ 27.8 µg/mL); against Escherichia coli (Escherichia coli, 272(TEM-88)), < 0.7 µM; in the assay on Escherichia coli (Escherichia coli, 274 (TEM-15)), 0.2 µM (≈ 0.0723 µg/mL). Besides, the MIC was < 0.2 µM with Escherichia coli (Escherichia coli, 276 (TEM-52)); 0.14 µM (≈ 0.0506 µg/mL) in the assay on Escherichia coli (Escherichia coli, ATCC25922, Escherichia coli ATCC 25922); < 0.7 µM against Escherichia coli (Escherichia coli, strain 26 (listed under Escherichia coli)); 0.1 µM (≈ 0.0361 µg/mL) against Feilaoti citrobacter (Feilaoti citrobacter 48001); < 0.007 µM with Proteus vulgaris (Proteus vulgaris 56); 1.2 µM (≈ 0.434 µg/mL) in the assay on Pseudomonas aeruginosa (Pseudomonas aeruginosa, Pseudomonas aeruginosa TCC27853). In addition, the MIC is 0.7 µM (≈ 0.253 µg/mL) with Pseudomonas aeruginosa (Pseudomonas aeruginosa, strain 17 (listed under Pseudomonas aeruginosa)); < 0.02 µM in the assay on Salmonella typhimurium (Salmonella enterica, Salmonella typhimurium); 0.1 µM (≈ 0.0361 µg/mL) in the assay on Serratia marcescens (Serratia marcescens 41002); 0.1 µM (≈ 0.0361 µg/mL) in the assay on Shigella flexneri; 0.1 µM (≈ 0.0361 µg/mL) with Shigella sonnei; < 0.02 µM against Shigella. The MIC against Staphylococcus aureus (setting [3]) was 0.3 µM (≈ 0.108 µg/mL); in the assay on Staphylococcus aureus (setting [4]), 76.9 µM (≈ 27.8 µg/mL); with Staphylococcus aureus (Staphylococcus aureus ATCC25923) it was 0.3 µM (≈ 0.108 µg/mL); in the assay with Staphylococcus aureus (Staphylococcus aureus ATCC29213), 0.6 µM (≈ 0.217 µg/mL); with Staphylococcus aureus (strain 15 (listed under Staphylococcus aureus)), 0.3 µM (≈ 0.108 µg/mL); in [2] (08-17 (MSSE) Meticillin susceptible staphylococcus epidermidis) it was 1.2 µM (≈ 0.434 µg/mL). Also, the MIC was 55.5 µM (≈ 20.1 µg/mL) in [2] (08-18 (MRSE) Methicillin-resistant staphylococcus epidermidis); 0.3 µM (≈ 0.108 µg/mL) in assay [2] (ATCC 12228 / MRSE, (MRSE) Methicillin-resistant Staphylococcus epidermidis ATCC12228); < 0.02 µM with Typhoid bacillus H901; 76.9 µM (≈ 27.8 µg/mL) with klebsiella pneumoniae (08-2 (ESBLs) (listed under klebsiella pneumoniae)); 1.2 µM (≈ 0.434 µg/mL) against klebsiella pneumoniae (ATCC700603, klebsiella pneumoniae ATCC700603); < 16 µM against klebsiella pneumoniae (strain 7 (listed under klebsiella pneumoniae)). The MIC in the assay on Enterococcus faecalis (setting [5]) was determined as 2.4 µM (≈ 0.867 µg/mL); in the assay with Enterococcus faecalis (Enterococcus faecalis, ATCC29212, Enterococcus faecalis ATCC29212), 1.2 µM (≈ 0.434 µg/mL); in the assay on Enterococcus faecalis (Enterococcus faecalis, HH22* (AMEs) Aminoglycoside-modifying enzyme) it was 1.2 µM (≈ 0.434 µg/mL); against Enterococcus faecalis (Enterococcus faecalis, strain 06-7 (listed under Enterococcus faecalis)) it was 19.2 µM (≈ 6.95 µg/mL); against Enterococcus faecium (Enterococcus faecium 06-1) it was 2.40 µM (≈ 0.867 µg/mL); against Enterococcus faecium (Enterococcus faecium, 06-12 (VREF) Vancomycin-resistant enterococci), 2.4 µM (≈ 0.867 µg/mL).
In the case of `CC(=O)N[C@H](Cc1ccccc1)C(=O)N[C@H](CCCCN)C(=O)N[C@H](CCCCN)C(=O)N[C@H](Cc1ccccc1)C(=O)N[C@H](CCCCN)C(=O)N[C@H](CCCCN)C(=O)N[C@H](CC(C)C)C(=O)N[C@H](CC(C)C)C(=O)N[C@H](CO)C(=O)N[C@H](CCCCN)C(=O)N[C@H](CC(C)C)C(=O)N[C@H](Cc1c[nH]c2ccccc12)C(=O)N[C@H](CC(N)=O)C(=O)N[C@H](Cc1c[nH]c2ccccc12)C(=O)N[C@H](CCCCN)C(N)=O` [PL-43] (Ac-[dF][dK][dK][dF][dK][dK][dL][dL][dS][dK][dL][dW][dN][dW][dK]-NH2; N-terminus and C-terminus assumed), the MIC in assay [1] is 0.3 µM (≈ 0.611 µg/mL); against Enterobacter aerogenes, 0.003 µM (≈ 0.00611 µg/mL); against Enterobacter cloacae, 0.03 µM (≈ 0.0611 µg/mL); in the assay with Feilaoti citrobacter, 0.3 µM (≈ 0.611 µg/mL); in the assay on Proteus vulgaris, 0.3 µM (≈ 0.611 µg/mL); against Salmonella typhimurium (murium), 0.3 µM (≈ 0.611 µg/mL). Besides, in the assay with Serratia marcescens, the MIC stood at 0.3 µM (≈ 0.611 µg/mL).
Ac-FKKLKKLFSKLWNWK-NH2 [PL-13]: the MIC entry was “.3 µM” in assay [1]; 2.7 µM with Enterobacter aerogenes; 1.3 µM against Enterobacter cloacae; 0.7 µM against Escherichia coli (08-5 (ESBLs) Extended Spectyumβ-lactamase); 1.3 µM against Feilaoti citrobacter; 0.3 µM in the assay on Proteus vulgaris. Also, the MIC with Pseudomonas aeruginosa was determined as 1.3 µM; against Salmonella typhimurium (murium), 1.3 µM; in the assay with Serratia marcescens, 0.3 µM; against Shigella flexneri, 0.7 µM; against Shigella sonnei it was 0.7 µM; in the assay with Shigella, 0.7 µM. For the same compound, the MIC with Staphylococcus aureus was found to be 0.7 µM; in the assay with Staphylococcus aureus (setting [3]), 2.7 µM; with Staphylococcus aureus (setting [4]), 2.7 µM; in the assay on Typhoid bacillus H901, 1.3 µM; in the assay on Enterococcus faecalis (setting [5]), 1.7 µM; with Enterococcus faecalis (setting [6]) it was 1.7 µM. In addition, the MIC in the assay with Enterococcus faecalis (read-out: MIC) is given as 5.3 µM; with Enterococcus faecalis (strain 06-7 (listed under Enterococcus faecalis), read-out: MIC), 1.3 µM; against Enterococcus faecium (setting [7]), 5.3 µM; in the assay on Enterococcus faecium (Enterococcus faecium 06-1) it was 5.3 µM.
`CC(=O)N[C@H](Cc1ccccc1)C(=O)N[C@H](CCCCN)C(=O)N[C@H](CCCCN)C(=O)N[C@H](CC(C)C)C(=O)N[C@H](CCCCN)C(=O)N[C@H](CCCCN)C(=O)N[C@H](CC(C)C)C(=O)N[C@H](Cc1ccccc1)C(=O)N[C@H](CO)C(=O)N[C@H](CCCCN)C(=O)N[C@H](CC(C)C)C(=O)N[C@H](Cc1c[nH]c2ccccc12)C(=O)N[C@H](CC(N)=O)C(=O)N[C@H](Cc1c[nH]c2ccccc12)C(=O)N[C@H](CCCCN)C(N)=O` [PL-18] (Ac-[dF][dK][dK][dL][dK][dK][dL][dF][dS][dK][dL][dW][dN][dW][dK]-NH2) came in with a Minimal inhibitory concentration with candida krusei of 4 µg/mL (≈ 1.97 µM). The MIC in assay [1] is 1.7 µM (≈ 3.46 µg/mL); with Enterobacter aerogenes, 0.04 µM (≈ 0.0814 µg/mL); in the assay on Enterobacter cloacae, 0.04 µM (≈ 0.0814 µg/mL); against Feilaoti citrobacter it was 0.3 µM (≈ 0.611 µg/mL); against Proteus vulgaris, 5.3 µM (≈ 10.8 µg/mL); with Salmonella typhimurium (murium), 0.3 µM (≈ 0.611 µg/mL). The MIC amounted to 0.04 µM (≈ 0.0814 µg/mL) against Serratia marcescens; 0.04 µM (≈ 0.0814 µg/mL) against Shigella sonnei; 1.3 µM (≈ 2.65 µg/mL) in the assay on Shigella; 0.7 µM (≈ 1.42 µg/mL) with Staphylococcus aureus; 2.7 µM (≈ 5.5 µg/mL) against Staphylococcus aureus (setting [4]); 0.7 µM (≈ 1.42 µg/mL) in assay [2]. Moreover, the MIC against Typhoid bacillus H901 is 0.3 µM (≈ 0.611 µg/mL); with Enterococcus faecalis (setting [5]), 1.3 µM (≈ 2.65 µg/mL); in the assay on Enterococcus faecalis (setting [6]), 1.7 µM (≈ 3.46 µg/mL); in the assay on Enterococcus faecium (setting [7]), 5.3 µM (≈ 10.8 µg/mL); in the assay on Enterococcus faecium (Enterococcus faecium 06-1), 5.3 µM (≈ 10.8 µg/mL).
